Laboratory results as given in patent US10253081B2, “Glucagon analogues” (Zealand Pharma A/S, priority 2012, dated 2019).
*1 amine or outer side, *2 acyl side, *3 side chain or, on linkers, in order; H or OH if unused. Where a SMILES comes first, the peptide text is derived from it. Side-chain parts run from the residue outwards. [ ]: non-standard residue; d: D form. The star is where a group is joined. γGlu = O=C(O)[C@H](CCC(=O)[*:2])N[*:1]; Palmitoyl = CCCCCCCCCCCCCCCC(=O)*; Aib = CC(C)(N)C(=O)O

Columns and labels:
Type in all cases: cell-based
[1] = molecular target: T1, human glucagon receptor (Glucagon-R) (Homo sapiens, UniProt P47871); test: Glucagon receptor efficacy assay (cAMP AlphaScreen, CHO cells); conditions: Table 1B; same protocol, different laboratory; read-out: EC50 hGCGR CHO-K1
T1 construct: expressed in transfected cells
Description: (§1) The cDNA encoding either the human glucagon receptor (Glucagon-R) (primary accession number P47871) or the human glucagon-like peptide 1 receptor (GLP-1R) (primary accession number P43220) were synthesized and cloned into a mammalian expression vector containing a Zeocin resistance marker.
(§2) The mammalian expression vectors encoding the Glucagon-R or the GLP-1-R were transfected into Chinese hamster ovary (CHO) cells by the Attractene method method. Stably expressing clones were obtained by Zeocin selection (250 μg/mL) upon limited dilution of cells resistant to the selection pressure. Glucagon-R and GLP-1-R cell clones expressing were picked, propagated and tested in the Glucagon-R and GLP-1-R efficacy assays as described below. One Glucagon-R expressing clone and one GLP-1-R expressing clone were chosen for compound profiling.
(§3) CHO cells expressing the human Glucagon-R, or human GLP-1-R were seeded 24 hours prior to the assay at 30,000 cells per well in 96-well microtiter plates in culture in 100 μl growth medium. On the day of analysis, growth medium was removed and the cells were washed once with 200 μl of assay buffer (Krebs-Ringer-buffer—KRBH). The buffer was removed and the cells were incubated for 15 min at room temperature in 10 μl KRBH (KRBH+10 mM HEPES, 5 mM NaHCO3, 0.1% (V/V) BSA) with 0.1 mM IBMX in deionized water containing increasing concentrations of test peptides. The reaction was stopped by the addition of lysis buffer (0.1% w/v BSA, 5 mM HEPES, 0.3% v/v Tween-20). After cell lysis for 10 min at room temperature, lysates were transferred to 384-well plates and 10 μl of acceptor/donorbead mixture as contained in the AlphaScreen™ cAMP Functional Assay Kit was added. After one hour of incubation at room temperature in the dark, the cAMP content was determined applying the AlphaScreen™ cAMP Functional Assay Kit from Perkin-Elmer according to manufacturer instructions. EC50 and relative efficacies compared to reference compounds (glucagon and GLP-1) were calculated applying computer aided curve fitting. The GLP-1/glucagon ratio is calculated as defined earlier.

[2] = molecular target: T2, human glucagon-like peptide 1 receptor (GLP-1R) (Homo sapiens, UniProt P43220); test: GLP-1 receptor efficacy assay (cAMP AlphaScreen, CHO cells); conditions: Table 1B; for Ratio GLP-1/Glucagon: EC50 [GLP-1R]/EC50 [Glucagon-R]; for EC50: same protocol, different laboratory, read-out: EC50 hGLP-1R CHO-K1
T2 construct: expressed in transfected cells
Description: as §1, §2, §3

[3] = molecular target: T3, endogenous GLP-1 receptors (Mus musculus, UniProt O35659); test: Agonistic activity on endogenous GLP-1 receptor (cAMP, murine insulinoma cell line); conditions: intracellular cAMP, 15 minutes at 26° C.; read-out: EC50 GLP-1R (murine insulinoma cells)
T3 construct: Agonistic activity of the test compounds on endogenous GLP-1 receptors; endogenous in cells
T3 sequence (O35659 22-463): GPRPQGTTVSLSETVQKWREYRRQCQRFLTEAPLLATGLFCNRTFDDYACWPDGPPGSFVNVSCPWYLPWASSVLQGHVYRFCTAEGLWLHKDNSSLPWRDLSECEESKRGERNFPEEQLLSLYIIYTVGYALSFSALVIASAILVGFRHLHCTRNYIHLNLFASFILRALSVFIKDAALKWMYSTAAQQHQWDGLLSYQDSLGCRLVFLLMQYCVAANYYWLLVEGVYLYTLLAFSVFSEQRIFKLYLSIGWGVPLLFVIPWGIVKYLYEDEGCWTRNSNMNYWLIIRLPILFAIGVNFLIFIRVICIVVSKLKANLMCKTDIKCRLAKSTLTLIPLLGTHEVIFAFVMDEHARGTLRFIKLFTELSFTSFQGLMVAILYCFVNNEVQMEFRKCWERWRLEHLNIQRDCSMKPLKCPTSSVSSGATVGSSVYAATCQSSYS
Method: Agonistic activity of the test compounds on endogenous GLP-1 receptors was determined using a murine insulinoma cell line. Intracellular cAMP was used an indicator of receptor activation.
Cells were cultured for 24 h at a density of 10,000 cells/well in a 384-well plate. Medium was removed and 10 μL KRBH buffer (NaCl 130 mM, KCl 3.6 mM, NaH2PO4 0.5 mM, MgSO4 0.5 mM, CaCl2) 1.5 mM) containing test compound or GLP-1 (at increasing concentrations from […] to 100 nM) or solvent control (0.1% (v/v) DMSO) was added to the wells for 15 minutes at a temperature of 26° C.
The cellular cAMP content is measured using the AlphaScreen cAMP Functional Assay Kit (Perkin Elmer). Measurement was performed using the Envision (PerkinElmer) according to manufacturer's recommendations.
All measurements were performed in quadruplicate.
Results were converted into cAMP concentrations using a cAMP standard curve prepared in KRBH buffer containing 0.1% (v/v) DMSO. The resulting cAMP curves were plotted as absolute cAMP concentrations (nM) over log (test compound concentration) and analyzed using the curve fitting program XLfit.
Parameters calculated to describe the both the potency as well as the agonistic activity of each test compound on the endogenous GLP-1 receptors were:
pEC50 (negative logarithmic value of EC50, a concentration resulting in a half-maximal elevation of cAMP levels, reflecting the potency of the test compound);
Percent control (% CTL)(% cAMP elevation for each test compound concentration normalized based on the GLP-1-induced maximum cAMP response (100% CTL)).

[4] = molecular target: T4, endogenous glucagon receptor (Rattus norvegicus, UniProt P30082); test: Agonistic activity on endogenous glucagon receptor (glycogen synthesis rate in primary rat hepatocytes); conditions: inhibition of glycogen synthesis rate, 3 hours, read-out: EC50 GLP-1R Rat hepat.
T4 construct: Agonistic activity of the test compounds on endogenous glucagon receptor; endogenous in cells; host or cells: primary rat hepatocytes
Method: Agonistic activity of the test compounds on endogenous glucagon receptor was determined by measuring their effect on rate of glycogen synthesis in primary rat hepatocytes. Upon activation of the glucagon receptor, an inhibition of the glycogen synthesis rate is expected. Rate of glycogen synthesis was determined by counting the amount of radioactively labeled glucose incorporated into the cellular glycogen stores in a defined period of time.
Primary rat hepatocytes were cultured at a density of 40,000 cells/well in a 24-well plate for 24 hours at 37° C. and 5% CO2.
Medium was discarded and the cells washed with PBS. 180 μL of KRBH-based buffer containing 0.1% BSA and glucose at a concentration of 22.5 mM was then added to the wells, followed by test compound and 40 μCi/ml D-[U14C] glucose (20 μL each). Incubation was continued for 3 hours.
At the end of the incubation period, the incubation buffer was aspirated and cells washed once with ice-cold PBS before lysis by incubation for 30 min at room temperature with 100 μL 1 mol/l NaOH.
Cell lysates were transferred to 96-well filter plates and glycogen precipitated by incubating the filter-plates for 120 min at 4° C. followed by washing the filter plates 4 times with ice-cold ethanol (70%). The resulting precipitates were filtered to dryness and the amount of incorporated ^14C-glucose determined by using a Topcount scintillation counter according to manufacturer's recommendations.
Wells with vehicle controls (0.1% (v/v) DMSO in KRBH buffer) were included as reference for non-inhibited glycogen synthesis (100% CTL). Wells without added D-[U^14C] glucose were included as controls for non-specific background signal (subtracted from all values). Endogenous glucagon peptide was used as a positive control.
All treatments were performed at least in triplicates.
Parameters calculated to describe the both the potency as well as the agonistic activity of each test compound on the endogenous glucagon receptor are pEC50 and % CTL. % CTL is determined by calculating the percentage of CPM/well in the presence of the test compound compared to the CPM/well of the vehicle control after subtracting the background CPM/well: [CPM/well(basal)−CPM/well(sample)]*100/[CPM/well(basal)−CPM/well(control)]
An activator of the glucagon receptor will result in an inhibition of the glycogen synthesis rate and will give % CTL values between 0% CTL (complete inhibition) and 100% CTL (no observable inhibition).
The resulting activity curves were plotted as absolute counts (unit: cpm/sample) over log (test compound concentration) and analyzed using the curve fitting program XLfit.
pEC50 (negative logarithmic value of EC50) reflects the potency of the test compound.
The terms EC50 and pEC50 quoted in relation to GLP-1R activation could equally be regarded as IC50 and pIC50 in relation to glycogen synthesis.

T1 sequence (P47871 26-477): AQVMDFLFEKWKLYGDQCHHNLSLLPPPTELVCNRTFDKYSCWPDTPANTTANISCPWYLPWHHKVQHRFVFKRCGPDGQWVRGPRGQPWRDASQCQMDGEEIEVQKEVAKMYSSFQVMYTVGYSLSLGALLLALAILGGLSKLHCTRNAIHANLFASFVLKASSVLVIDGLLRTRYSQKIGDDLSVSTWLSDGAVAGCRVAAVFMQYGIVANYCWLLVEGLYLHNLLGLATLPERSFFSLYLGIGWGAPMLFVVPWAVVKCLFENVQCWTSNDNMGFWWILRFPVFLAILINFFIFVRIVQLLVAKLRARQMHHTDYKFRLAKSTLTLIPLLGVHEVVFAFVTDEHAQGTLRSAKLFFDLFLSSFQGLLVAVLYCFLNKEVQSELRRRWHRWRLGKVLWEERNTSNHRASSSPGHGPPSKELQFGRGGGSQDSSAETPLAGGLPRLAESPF
T2 sequence (P43220 24-463): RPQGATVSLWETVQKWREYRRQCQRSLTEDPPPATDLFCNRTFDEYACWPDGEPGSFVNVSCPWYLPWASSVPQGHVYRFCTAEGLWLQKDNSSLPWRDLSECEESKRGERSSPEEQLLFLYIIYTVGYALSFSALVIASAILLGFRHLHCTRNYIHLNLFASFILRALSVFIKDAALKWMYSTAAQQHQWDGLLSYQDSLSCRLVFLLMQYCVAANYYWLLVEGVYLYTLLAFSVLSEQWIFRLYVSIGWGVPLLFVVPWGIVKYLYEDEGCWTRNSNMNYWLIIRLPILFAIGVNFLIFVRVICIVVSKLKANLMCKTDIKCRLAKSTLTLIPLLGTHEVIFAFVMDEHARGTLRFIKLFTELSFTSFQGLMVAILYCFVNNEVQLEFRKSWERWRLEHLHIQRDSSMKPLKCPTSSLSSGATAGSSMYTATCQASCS
T4 sequence (P30082 27-485): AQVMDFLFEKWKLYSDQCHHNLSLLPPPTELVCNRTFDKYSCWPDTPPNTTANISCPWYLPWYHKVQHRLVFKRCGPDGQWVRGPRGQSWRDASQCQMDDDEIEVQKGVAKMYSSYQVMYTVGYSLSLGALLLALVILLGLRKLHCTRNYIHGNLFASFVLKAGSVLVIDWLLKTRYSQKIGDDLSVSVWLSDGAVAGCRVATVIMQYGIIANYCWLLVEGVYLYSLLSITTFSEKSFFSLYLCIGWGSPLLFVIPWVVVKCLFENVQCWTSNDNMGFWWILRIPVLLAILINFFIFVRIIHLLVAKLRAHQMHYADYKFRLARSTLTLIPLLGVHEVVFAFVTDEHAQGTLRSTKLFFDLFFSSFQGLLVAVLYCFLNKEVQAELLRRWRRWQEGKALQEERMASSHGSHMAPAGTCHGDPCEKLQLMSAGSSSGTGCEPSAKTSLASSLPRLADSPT

EC50 [1] [nM]	Ratio GLP-1/Glucagon [2]	EC50 [2] [nM]	EC50 [3] [nM]	EC50 [4] [nM]	Compound
0.25	0.52	0.13	0.31	1.32	CCCCCCCCCCCCCCCC(=O)N[C@@H](CCC(=O)NCCCC[C@H](NC(=O)[C@H](CO)NC(=O)[C@H](CCC(=O)O)NC(=O)[C@H](CC(C)C)NC(=O)[C@H](Cc1ccc(O)cc1)NC(=O)[C@H](CCCCN)NC(=O)[C@H](CO)NC(=O)[C@H](Cc1ccc(O)cc1)NC(=O)[C@H](CC(=O)O)NC(=O)[C@H](CO)NC(=O)[C@@H](NC(=O)[C@H](Cc1ccccc1)NC(=O)[C@@H](NC(=O)CNC(=O)[C@H](CCC(N)=O)NC(=O)C(C)(C)NC(=O)[C@@H](N)Cc1c[nH]cn1)[C@@H](C)O)[C@@H](C)O)C(=O)N[C@@H](C)C(=O)N[C@@H](C)C(=O)N[C@@H](Cc1c[nH]cn1)C(=O)N[C@@H](CC(=O)O)C(=O)N[C@@H](Cc1ccccc1)C(=O)N[C@H](C(=O)N[C@@H](CCC(=O)O)C(=O)N[C@@H](Cc1c[nH]c2ccccc12)C(=O)N[C@@H](CC(C)C)C(=O)N[C@@H](CCC(=O)O)C(=O)N[C@@H](CO)C(=O)N[C@@H](C)C(N)=O)C(C)C)C(=O)O [Compound 23, H-H-Aib-QGTFTSDYSKYLES-K(Hexadecanoyl-isoGlu)-AAHDFVEWLESA-NH2] (H-H[Aib]QGTFTSDYSKYLESK([γGlu-Palmitoyl])AAHDFVEWLESA-NH2)
0.92	0.12	0.11	0.33	6.15	CCCCCCCCCCCCCCCC(=O)N[C@@H](CCC(=O)NCCCC[C@H](NC(=O)[C@H](CO)NC(=O)[C@H](CCC(=O)O)NC(=O)[C@H](CC(C)C)NC(=O)[C@H](Cc1ccc(O)cc1)NC(=O)[C@H](CCCCN)NC(=O)[C@H](CO)NC(=O)[C@H](Cc1ccc(O)cc1)NC(=O)[C@H](CC(=O)O)NC(=O)[C@H](CO)NC(=O)[C@@H](NC(=O)[C@H](Cc1ccccc1)NC(=O)[C@@H](NC(=O)CNC(=O)[C@H](CCC(N)=O)NC(=O)C(C)(C)NC(=O)[C@@H](N)Cc1c[nH]cn1)[C@@H](C)O)[C@@H](C)O)C(=O)N[C@@H](C)C(=O)N[C@@H](C)C(=O)N[C@@H](CCC(=O)O)C(=O)N[C@@H](CC(=O)O)C(=O)N[C@@H](Cc1ccccc1)C(=O)N[C@H](C(=O)N[C@@H](CCC(=O)O)C(=O)N[C@@H](Cc1c[nH]c2ccccc12)C(=O)N[C@@H](CC(C)C)C(=O)N[C@@H](CCC(=O)O)C(=O)N[C@@H](CO)C(=O)N[C@@H](C)C(N)=O)C(C)C)C(=O)O [Compound 24, H-H-Aib-QGTFTSDYSKYLES-K(Hexadecanoyl-isoGlu)-AAEDFVEWLESA-NH2] (H-H[Aib]QGTFTSDYSKYLESK([γGlu-Palmitoyl])AAEDFVEWLESA-NH2)
0.16	1.94	0.31	0.41	0.15	CCCCCCCCCCCCCCCC(=O)N[C@@H](CCC(=O)NCCCC[C@H](NC(=O)[C@H](CCC(=O)O)NC(=O)[C@H](CC(=O)O)NC(=O)[C@H](CC(C)C)NC(=O)[C@H](Cc1ccc(O)cc1)NC(=O)[C@H](CCCCN)NC(=O)[C@H](CO)NC(=O)[C@H](Cc1ccc(O)cc1)NC(=O)[C@H](CC(=O)O)NC(=O)[C@H](CO)NC(=O)[C@@H](NC(=O)[C@H](Cc1ccccc1)NC(=O)[C@@H](NC(=O)CNC(=O)[C@H](CCC(N)=O)NC(=O)[C@@H](CO)NC(=O)[C@@H](N)Cc1c[nH]cn1)[C@@H](C)O)[C@@H](C)O)C(=O)N[C@@H](C)C(=O)N[C@@H](C)C(=O)N[C@@H](CCCCN)C(=O)N[C@@H](CC(=O)O)C(=O)N[C@@H](Cc1ccccc1)C(=O)N[C@H](C(=O)N[C@@H](CCC(=O)O)C(=O)N[C@@H](Cc1c[nH]c2ccccc12)C(=O)N[C@@H](CC(C)C)C(=O)N[C@@H](CCC(=O)O)C(=O)N[C@@H](CO)C(=O)N[C@@H](C)C(N)=O)[C@@H](C)CC)C(=O)O [Compound 25, H-H-DSer-QGTFTSDYSKYLDE-K(Hexadecanoyl-isoGlu)-AAKDFIEWLESA-NH2]
